Patent publication US20250059205A1, “Heterocyclic Compounds and Methods of Use” (AMGEN INC., priority 2021, published 2025)
Like-named read-outs stand apart in the source and are kept apart here.

Legend:
[1] = biological target: His-tagged KRAS G12D protein (Homo sapiens, UniProt P01116, G12D); assay: KRAS G12D TR-FRET Assay; assay type: binding
[2] = biological target: GDP-bound KRAS protein (aa 1-169), containing both G12D and C118A amino acid substitutions (Homo sapiens, UniProt P01116, C118A/G12D); assay: KRAS G12D Coupled Nucleotide Exchange Assay; assay type: biochemical; conditions: 2 h compound pre-incubation
Description: Following compound pre-incubation, purified SOS protein (aa 564-1049) and GTP (Roche 10106399001) were added to the assay wells and incubated for an additional 30 min. […] The assay plates were then read on a PerkinElmer EnVision Multilabel Reader, using AlphaScreen® technology, and data were analyzed using a 4-parameter logistic model to calculate IC50 values.

[3] = system: Phosphorylation of ERK1/2 in A-427 cells; assay: Phospho-ERK1/2 MSD Assay (A-427 cells); assay type: cell-based; conditions: Homo sapiens, 2 h treatment, read-out: p-ERK (A427 cells) IC50
In short: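 ERK1/2 phosphorylation measured by Meso Scale whole-cell lysate assay after A-427 cells were exposed to a titration of compound for 2 h at 37 °C.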

[4] = system: Phosphorylation of ERK1/2 in AsPC-1 cells; assay: Phospho-ERK1/2 MSD Assay (AsPC-1 cells); assay type: cell-based; conditions: Homo sapiens, read-out: p-ERK (AsPC-1 cells) IC50
In short: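 Read-out: MSD electrochemiluminescent detection of phosphorylated ERK1/2 in whole-cell lysates, fitted to a 4-parameter logistic curve for IC50. Prior to lysis, AsPC-1 cells (25,000 per well) received a 2 h compound dose-response at 37 °C.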

Chain of His-tagged KRAS G12D protein (P01116 1-188 isoform P01116-2 G12D): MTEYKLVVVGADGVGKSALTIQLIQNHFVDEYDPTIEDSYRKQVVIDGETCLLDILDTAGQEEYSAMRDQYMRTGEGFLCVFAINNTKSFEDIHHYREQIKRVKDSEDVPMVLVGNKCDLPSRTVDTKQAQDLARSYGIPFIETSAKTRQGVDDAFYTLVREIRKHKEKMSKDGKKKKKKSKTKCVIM
Chain of GDP-bound KRAS protein (aa 1-169), containing both G12D and C118A amino acid substitutions (P01116 1-169 isoform P01116-2 G12D/C118A): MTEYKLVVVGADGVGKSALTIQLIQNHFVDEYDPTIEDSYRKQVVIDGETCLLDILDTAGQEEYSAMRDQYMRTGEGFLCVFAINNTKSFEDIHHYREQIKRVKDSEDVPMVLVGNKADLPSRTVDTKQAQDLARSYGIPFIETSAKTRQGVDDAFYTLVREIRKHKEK

Row | SMILES | IC50 [1] | Avg 2 h Coupled Exchange IC50 [2] | IC50 ([3]; A-427, 2 h) | IC50 ([4]; ASPC1, 2 h, 2 hours treatment) | IC50 [3] | IC50 ([4]; ASPC1, 2 hours treatment)
1 | Fc1cc2c(N3[C@@H]4CC[C@H]3CNC4)nc(OC[C@@]34CCCN3C[C@H](F)C4)nc2c(F)c1-c1cncc2cccc(Cl)c12 [Example 101, 4-((1R,5S)-3,8-Diazabicyclo[3.2.1]octan-8-yl)-7-(5-chloroisoquinolin-4-yl)-6,8-difluoro-2-(((2R,7aS)-2-fluorotetrahydro-1H-pyrrolizin-7a(5H)-yl)methoxy)quinazoline] | 0.07 µM | 0.035 µM | – | – | 2.92 µM | 1.71 µM
2 | CCc1c(F)ccc2cc(O)cc(-c3ccc4c(N5CC6CCC(C5)N6)nc(OC[C@@]56CCCN5C[C@H](F)C6)nc4c3)c12 [Example 111] | 0.002 µM | 0.001 µM | 0.028 µM | 0.051 µM | – | –
3 | Nc1ccc(C2CC2)c(-c2c(F)cc3c(N4C[C@H]5CC[C@@H](C4)N5)nc(OC[C@@]45CCCN4C[C@H](F)C5)nc3c2F)c1 [Example 114, 3-(4-((1R,5S)-3,8-diazabicyclo[3.2.1]octan-3-yl)-6,8-difluoro-2-(((2R,7aS)-2-fluorotetrahydro-1H-pyrrolizin-7a(5H)-yl)methoxy)quinazolin-7-yl)-4-cyclopropylaniline] | 0.016 µM | 0.004 µM | 0.985 µM | 1.42 µM | – | –
4 | Nc1ccc(C2CC2)c(-c2c(F)cc3c(N4C[C@@H]5CC[C@H]4CN5)nc(OC[C@@]45CCCN4C[C@H](F)C5)nc3c2F)c1 [Example 115, 3-(4-((1S,4S)-2,5-diazabicyclo[2.2.2]octan-2-yl)-6,8-difluoro-2-(((2R,7aS)-2-fluorotetrahydro-1H-pyrrolizin-7a(5H)-yl)methoxy)quinazolin-7-yl)-4-cyclopropylaniline] | 0.032 µM | 0.023 µM | 2.74 µM | 2.79 µM | – | –

More lines, main results first:

Row | IC50 [1] | Avg 2 h Coupled Exchange IC50 [2] | IC50 ([3]; A-427, 2 h) | IC50 ([4]; ASPC1, 2 h, 2 hours treatment) | SMILES | IC50 [3] | IC50 ([4]; ASPC1, 2 hours treatment)
5 | 0.004 µM | 0.003 µM | 0.017 µM | 0.029 µM | CCc1cccc2cc(O)cc(-c3c(F)cc4c(N5C[C@@H]6CC[C@H]5CN6)nc(OC[C@@]56CCCN5C[C@H](F)C6)nc4c3F)c12 [Example 109, 4-(4-((1S,4S)-2,5-Diazabicyclo[2.2.2]octan-2-yl)-6,8-difluoro-2-(((2R,7aS)-2-fluorotetrahydro-1H-pyrrolizin-7a(5H)-yl)methoxy)quinazolin-7-yl)-5-ethylnaphthalen-2-ol] | – | –
6 | 0.004 µM | 0.003 µM | 0.01 µM | 0.026 µM | CCc1cccc2cc(O)cc(-c3ccc4c(N5C[C@@H]6CC[C@H]5CN6)nc(OC[C@@]56CCCN5C[C@H](F)C6)nc4c3F)c12 [Example 110, 4-(4-((1S,4S)-2,5-diazabicyclo[2.2.2]octan-2-yl)-8-fluoro-2-(((2R,7aS)-2-fluorotetrahydro-1H-pyrrolizin-7a(5H)-yl)methoxy)quinazolin-7-yl)-5-ethylnaphthalen-2-ol] | – | –
7 | 0.002 µM | 0.002 µM | 0.037 µM | 0.09 µM | CCc1c(F)ccc2cc(O)cc(-c3ccc4c(N5C[C@@H]6CC[C@H]5CN6)nc(OC[C@@]56CCCN5C[C@H](F)C6)nc4c3)c12 [Example 112, 4-(4-((1S,4S)-2,5-diazabicyclo[2.2.2]octan-2-yl)-2-(((2R,7aS)-2-fluorotetrahydro-1H-pyrrolizin-7a(5H)-yl)methoxy)quinazolin-7-yl)-5-ethyl-6-fluoronaphthalen-2-ol] | – | –
8 | 0.003 µM | 0.002 µM | 0.102 µM | 0.453 µM | Oc1cc(-c2ccc3c(N4C[C@@H]5CC[C@H]4CN5)nc(OC[C@@]45CCCN4C[C@H](F)C5)nc3c2)c2c(F)c(F)ccc2c1 [Example 113, 4-(4-((1S,4S)-2,5-diazabicyclo[2.2.2]octan-2-yl)-2-(((2R,7aS)-2-fluorotetrahydro-1H-pyrrolizin-7a(5H)-yl)methoxy)quinazolin-7-yl)-5,6-difluoronaphthalen-2-ol] | – | –
